How the values were obtained:
Format in all cases: functional
LOX IMVI = experiment: Anticancer activity against human LOXIMVI cells after 48 hrs by SRB assay
M14 = experiment: Anticancer activity against human M14 cells after 48 hrs by SRB assay; conditions: M14, 48 h
PC-3 = experiment: Anticancer activity against human PC3 cells after 48 hrs by SRB assay; conditions: PC-3, 48 h
786-0 = experiment: Anticancer activity against human 786-0 cells after 48 hrs by SRB assay; conditions: 786-0, 48 h
HT-29 = experiment: Anticancer activity against human HT-29 cells after 48 hrs by SRB assay; conditions: HT-29, 48 h
T47D = experiment: Anticancer activity against human T47D cells after 48 hrs by SRB assay
A549 = experiment: Anticancer activity against human A549 cells after 48 hrs by SRB assay; conditions: A549, 48 h
Malme-3M = experiment: Anticancer activity against human MALME-3M cells after 48 hrs by SRB assay
RXF 393 = experiment: Anticancer activity against human RXF393 cells after 48 hrs by SRB assay; conditions: RXF 393, 48 h
SF-268 = experiment: Anticancer activity against human SF268 cells after 48 hrs by SRB assay; conditions: SF-268, 48 h
CCRF-CEM = experiment: Anticancer activity against human CCRF-CEM cells after 48 hrs by SRB assay
SR = experiment: Anticancer activity against human SR cells after 48 hrs by SRB assay
ACHN = experiment: Anticancer activity against human ACHN cells after 48 hrs by SRB assay
OVCAR-3 = experiment: Anticancer activity against human OVCAR3 cells after 48 hrs by SRB assay; conditions: OVCAR-3, 48 h
SF-539 = experiment: Anticancer activity against human SF539 cells after 48 hrs by SRB assay; conditions: SF-539, 48 h
SK-MEL-28 = experiment: Anticancer activity against human SK-MEL-28 cells after 48 hrs by SRB assay; conditions: SK-MEL-28, 48 h
MDA-MB-231 = experiment: Anticancer activity against human MDA-MB-231 cells after 48 hrs by SRB assay; conditions: MDA-MB-231, 48 h
UACC-257 = experiment: Anticancer activity against human UACC257 cells after 48 hrs by SRB assay; conditions: UACC-257, 48 h
COLO 205 = experiment: Anticancer activity against human COLO205 cells after 48 hrs by SRB assay; conditions: COLO 205, 48 h
UACC-62 = experiment: Anticancer activity against human UACC62 cells after 48 hrs by SRB assay; conditions: UACC-62, 48 h
SF-295 = experiment: Anticancer activity against human SF295 cells after 48 hrs by SRB assay; conditions: SF-295, 48 h
NCI-H522 = experiment: Anticancer activity against human NCI-H522 cells after 48 hrs by SRB assay; conditions: NCI-H522, 48 h
CAKI-1 = experiment: Anticancer activity against human Caki1 cells after 48 hrs by SRB assay; conditions: CAKI-1, 48 h
A498 = experiment: Anticancer activity against human A498 cells after 48 hrs by SRB assay; conditions: A498, 48 h
UO-31 = experiment: Antiproliferative activity against human UO31 cells assessed as cell growth at 10^-5 M after 48 hrs by SRB assay relative to control; conditions: UO-31, 48 h, read-out: Activity
DU-145 = experiment: Anticancer activity against human DU145 cells after 48 hrs by SRB assay; conditions: DU-145, 48 h
[1] = Anticancer activity against human Hs 578T cells after 48 hrs by SRB assay
U-251 = experiment: Anticancer activity against human U251 cells after 48 hrs by SRB assay; conditions: U-251, 48 h
HCT-15 = experiment: Anticancer activity against human HCT15 cells after 48 hrs by SRB assay; conditions: HCT-15, 48 h
MCF7 = experiment: Anticancer activity against human MCF7 cells after 48 hrs by SRB assay; conditions: MCF7, 48 h
OVCAR-4 = experiment: Anticancer activity against human OVCAR4 cells after 48 hrs by SRB assay; conditions: OVCAR-4, 48 h
BT-549 = experiment: Anticancer activity against human BT549 cells after 48 hrs by SRB assay; conditions: BT-549, 48 h
HOP-92 = experiment: Anticancer activity against human HOP92 cells after 48 hrs by SRB assay; conditions: HOP-92, 48 h
HL-60(TB) = experiment: Anticancer activity against human HL-60(TB) cells after 48 hrs by SRB assay; conditions: HL-60, 48 h
MDA-MB-468 = experiment: Anticancer activity against human MDA-MB-468 cells after 48 hrs by SRB assay; conditions: MDA-MB-468, 48 h
[2] = read-out: LC50 (the source's name)

Cc1cc(O)c(C2=NN(c3ccc(S(N)(=O)=O)cc3)C(c3ccc(N(C)C)cc3)C2)c(C)c1Cl (configuration not stated)
GI50 (LOX IMVI): 2.34 µM | TGI (LOX IMVI): 6.98 µM | CC50 (LOX IMVI; [2]): 32.7 µM | GI50 (M14): 2.62 µM | TGI (M14): 10.4 µM | CC50 (M14; [2]): 32.2 µM | GI50 (PC-3): 4.44 µM | TGI (PC-3): 16.8 µM | CC50 (PC-3; [2]): 41 µM | GI50 (786-0): 4.97 µM | TGI (786-0): 17.4 µM | CC50 (786-0; [2]): 43.4 µM | GI50 (HT-29): 3.3 µM | LC50 (HT-29): 37.6 µM | TGI (HT-29): 11 µM | GI50 (T47D): 2.93 µM | TGI (T47D): 14.9 µM | CC50 (T47D; [2]): 49.8 µM | GI50 (A549): 5.91 µM | LC50 (A549): 73.4 µM | TGI (A549): 22.5 µM | GI50 (Malme-3M): 14.8 µM | TGI (Malme-3M): 35.2 µM | CC50 (Malme-3M; [2]): 83.4 µM | GI50 (RXF 393): 5.83 µM | TGI (RXF 393): 21.2 µM | CC50 (RXF 393; [2]): 58.9 µM | GI50 (SF-268): 5.76 µM | TGI (SF-268): 19.4 µM | CC50 (SF-268; [2]): 48.9 µM | GI50 (CCRF-CEM): 3.64 µM | TGI (CCRF-CEM): 13.5 µM | CC50 (CCRF-CEM; [2]): 44.4 µM | GI50 (SR): 1.28 µM | LC50 (concentration killing 50% of cells) (SR): 45.9 µM | TGI (SR): 17.8 µM | GI50 (ACHN): 3.7 µM | TGI (ACHN): 14.4 µM | CC50 (ACHN; [2]): 39.5 µM | GI50 (OVCAR-3): 4.21 µM | LC50 (concentration killing 50% of cells) (OVCAR-3): 39.6 µM | TGI (OVCAR-3): 15.7 µM | GI50 (SF-539): 12.3 µM | LC50 (SF-539): 49.7 µM | TGI (SF-539): 24.7 µM | GI50 (SK-MEL-28): 11.7 µM | LC50 (SK-MEL-28): 48.9 µM | TGI (SK-MEL-28): 23.9 µM | GI50 (MDA-MB-231): 2.34 µM | TGI (MDA-MB-231): 11.8 µM | CC50 (MDA-MB-231; [2]): 38.7 µM | GI50 (UACC-257): 11.9 µM | LC50 (UACC-257): 60.2 µM | TGI (UACC-257): 26.8 µM | GI50 (COLO 205): 1.69 µM | LC50 (COLO 205): 6.49 µM | TGI (COLO 205): 3.31 µM | GI50 (UACC-62): 3.49 µM | LC50 (lethal concentration 50%) (UACC-62): 38.8 µM | TGI (UACC-62): 15.1 µM | GI50 (SF-295): 16 µM | LC50 (SF-295): 62.4 µM | TGI (SF-295): 31.6 µM | GI50 (NCI-H522): 6.24 µM | LC50 (NCI-H522): 58.8 µM | TGI (NCI-H522): 21.6 µM | GI50 (CAKI-1): 4.38 µM | TGI (CAKI-1): 18.2 µM | CC50 (CAKI-1; [2]): 45 µM | GI50 (A498): 6.97 µM | TGI (A498): 19.3 µM | CC50 (A498; [2]): 44.2 µM | growth at 10 µM (UO-31): 66.6% | GI50 (DU-145): 5.6 µM | TGI (DU-145): 17.6 µM | CC50 (DU-145; [2]): 42.3 µM | GI50 [1]: 3.45 µM | TGI [1]: 20 µM | CC50 [1, 2]: 91.5 µM | GI50 (U-251): 3.34 µM | LC50 (U-251): 53.7 µM | TGI (U-251): 13.5 µM | GI50 (HCT-15): 5.48 µM | LC50 (concentration killing 50% of cells) (HCT-15): 57 µM | TGI (HCT-15): 20.8 µM | GI50 (MCF7): 2.01 µM | TGI (MCF7): 10.5 µM | CC50 (MCF7; [2]): 37.1 µM | GI50 (OVCAR-4): 7.68 µM | LC50 (OVCAR-4): 49.7 µM | TGI (OVCAR-4): 21.2 µM | GI50 (BT-549): 1.31 µM | TGI (BT-549): 27.7 µM | CC50 (BT-549; [2]): 58.9 µM | GI50 (HOP-92): 3.74 µM | LC50 (HOP-92): 41.9 µM | TGI (HOP-92): 17.6 µM | GI50 (HL-60(TB)): 7.84 µM | TGI (HL-60(TB)): 20.8 µM | GI50 (MDA-MB-468): 10.7 µM | TGI (MDA-MB-468): 24.6 µM | CC50 (MDA-MB-468; [2]): 56.8 µM
